Test results reported in paper PMC10687260, “1,3-Diphenylureido hydroxamate as a promising scaffold for generation of potent antimalarial histone deacetylase inhibitors” (Scientific Reports, 2023).

How the values were obtained:
CYP450 3A4 = CYP450 3A4 (Homo sapiens, UniProt P08684); assay: CYP450 inhibition in human liver microsomes, 3A4
Description: DMPK evaluation. […] At 0, 5, 10, 20, 40, and 60 min time points, aliquots were removed and acetonitrile was added to quench the reactions and precipitate the proteins. […] After a 10 min incubation, the reaction was terminated and the per cent inhibition was determined.

CYP1A2 = target: T1, CYP1A2 (Homo sapiens, UniProt P05177); assay: CYP450 inhibition in human liver microsomes, 1A2; assay type: in vitro ADME; conditions: 10 µM
T1 construct: 10 μM compound was incubated with human liver microsomes and selective marker substrates; from tissue; host or cells: human liver microsomes
T1 sequence (P05177 1-516): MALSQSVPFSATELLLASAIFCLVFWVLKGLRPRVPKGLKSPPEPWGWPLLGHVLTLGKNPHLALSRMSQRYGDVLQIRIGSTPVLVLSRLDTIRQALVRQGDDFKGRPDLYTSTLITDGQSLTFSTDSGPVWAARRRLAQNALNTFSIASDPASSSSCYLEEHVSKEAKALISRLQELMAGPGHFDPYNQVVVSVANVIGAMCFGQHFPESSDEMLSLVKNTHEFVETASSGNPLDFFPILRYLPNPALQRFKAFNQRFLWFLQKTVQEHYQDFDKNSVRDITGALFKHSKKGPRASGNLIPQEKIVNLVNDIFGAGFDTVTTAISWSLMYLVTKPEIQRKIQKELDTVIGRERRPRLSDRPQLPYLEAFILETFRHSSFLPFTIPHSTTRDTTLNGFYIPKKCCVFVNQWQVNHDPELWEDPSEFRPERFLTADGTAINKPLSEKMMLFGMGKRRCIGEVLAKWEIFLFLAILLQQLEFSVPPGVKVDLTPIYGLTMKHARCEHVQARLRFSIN

CYP450 2D6 = target: T2, CYP450 2D6 (Homo sapiens, UniProt P10635); assay: CYP450 inhibition in human liver microsomes, 2D6; assay type: in vitro ADME; conditions: 10 µM
T2 construct: 10 μM compound was incubated with human liver microsomes and selective marker substrates; from tissue; host or cells: human liver microsomes
T2 sequence (P10635 whole entry): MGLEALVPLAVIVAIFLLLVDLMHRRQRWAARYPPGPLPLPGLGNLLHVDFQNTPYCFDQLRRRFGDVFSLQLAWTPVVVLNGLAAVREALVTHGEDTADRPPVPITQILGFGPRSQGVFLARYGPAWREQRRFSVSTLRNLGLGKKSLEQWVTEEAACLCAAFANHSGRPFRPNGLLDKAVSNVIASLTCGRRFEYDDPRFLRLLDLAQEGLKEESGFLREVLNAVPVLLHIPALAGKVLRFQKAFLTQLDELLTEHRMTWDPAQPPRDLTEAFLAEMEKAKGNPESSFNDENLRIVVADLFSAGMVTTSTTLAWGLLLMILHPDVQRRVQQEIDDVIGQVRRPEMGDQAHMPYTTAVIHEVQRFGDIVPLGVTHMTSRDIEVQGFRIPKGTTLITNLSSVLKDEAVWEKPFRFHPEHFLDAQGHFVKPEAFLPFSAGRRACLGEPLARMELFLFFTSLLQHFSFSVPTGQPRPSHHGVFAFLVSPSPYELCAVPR

CYP450 2C9 = target: T3, CYP450 2C9 (Homo sapiens, UniProt P11712); assay: CYP450 inhibition in human liver microsomes, 2C9; assay type: in vitro ADME; conditions: 10 µM
T3 construct: 10 μM compound was incubated with human liver microsomes and selective marker substrates; from tissue; host or cells: human liver microsomes
T3 sequence (P11712 whole entry): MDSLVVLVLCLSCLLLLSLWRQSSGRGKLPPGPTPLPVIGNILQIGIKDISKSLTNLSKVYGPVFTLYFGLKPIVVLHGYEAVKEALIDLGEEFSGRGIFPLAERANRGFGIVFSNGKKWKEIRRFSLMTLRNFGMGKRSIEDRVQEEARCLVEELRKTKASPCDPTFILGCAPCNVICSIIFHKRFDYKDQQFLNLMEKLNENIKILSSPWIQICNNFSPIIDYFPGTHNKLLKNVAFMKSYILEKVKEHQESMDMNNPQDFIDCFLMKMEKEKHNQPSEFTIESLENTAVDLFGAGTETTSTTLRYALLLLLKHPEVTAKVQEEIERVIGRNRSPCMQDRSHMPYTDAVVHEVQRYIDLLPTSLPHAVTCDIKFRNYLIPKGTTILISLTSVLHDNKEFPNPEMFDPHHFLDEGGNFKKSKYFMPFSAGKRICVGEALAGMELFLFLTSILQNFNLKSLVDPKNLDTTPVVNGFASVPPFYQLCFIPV

Jurkat = tested on: Jurkat; set-up: method as in PMID 33668008; conditions: Fig. 1A; cited from earlier work
HDAC8 = target: T4, HDAC8 (Homo sapiens, UniProt Q9BY41); assay: In vitro HDAC enzymatic assay, HDAC8; assay type: biochemical; conditions: mean ± SD
T4 construct: made in house
T4 sequence (Q9BY41 1-377): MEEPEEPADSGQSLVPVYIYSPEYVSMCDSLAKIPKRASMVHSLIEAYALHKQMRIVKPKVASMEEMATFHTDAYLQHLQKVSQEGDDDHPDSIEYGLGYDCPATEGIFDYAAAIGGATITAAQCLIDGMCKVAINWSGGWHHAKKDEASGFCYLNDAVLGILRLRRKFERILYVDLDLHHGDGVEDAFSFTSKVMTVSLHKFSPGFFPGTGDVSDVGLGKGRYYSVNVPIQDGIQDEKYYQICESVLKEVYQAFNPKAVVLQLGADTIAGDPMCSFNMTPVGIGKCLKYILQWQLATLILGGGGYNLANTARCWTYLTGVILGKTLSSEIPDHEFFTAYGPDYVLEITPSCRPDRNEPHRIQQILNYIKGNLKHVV
Description: (§1) In vitro HDAC enzymatic assays. Recombinant human HDAC1 and HDAC6 were purchased from ENZO Life Sciences AG (Lausen, CH) whereas HDAC8 was produced as described before. In vitro testing of the inhibitors in an enzymatic assay was carried out as described in previous publications[32],[33]. For HDAC1 a fluorogenic peptide derived from p53 (Ac-RHKK(Acetyl)-AMC) was used. For HDAC6, the substrate (Abz-SRGGK(thio-TFA)FFRR-NH2) was used as described before.

human HDAC1 = target: T5, human HDAC1 (Homo sapiens, UniProt Q13547); assay: In vitro HDAC enzymatic assay, HDAC1; assay type: biochemical; conditions: mean ± SD
T5 construct: purchased ENZO Life Sciences AG (Lausen, CH)
T5 sequence (Q13547 whole entry): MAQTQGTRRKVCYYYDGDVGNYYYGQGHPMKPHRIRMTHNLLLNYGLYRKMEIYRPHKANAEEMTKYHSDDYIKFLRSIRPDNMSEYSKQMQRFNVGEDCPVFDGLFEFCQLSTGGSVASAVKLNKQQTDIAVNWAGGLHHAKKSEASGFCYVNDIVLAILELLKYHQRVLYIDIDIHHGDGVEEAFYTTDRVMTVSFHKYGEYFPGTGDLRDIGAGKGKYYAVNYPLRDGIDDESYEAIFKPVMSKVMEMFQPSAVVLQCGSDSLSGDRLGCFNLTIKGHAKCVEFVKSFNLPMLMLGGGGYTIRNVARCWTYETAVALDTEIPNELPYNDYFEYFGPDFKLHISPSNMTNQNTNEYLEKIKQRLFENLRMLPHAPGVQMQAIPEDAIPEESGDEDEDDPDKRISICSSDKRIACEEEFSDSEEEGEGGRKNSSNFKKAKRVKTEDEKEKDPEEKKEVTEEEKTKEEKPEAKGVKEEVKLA
Description: as §1

HepG2 cells = assay: Cytotoxicity in human HepG2 cells (WST-1); assay type: cell-based; conditions: Homo sapiens, HepG2; 48 h, WST-1; read-out: IC50 HepG2
Description: Cytotoxicity in human HepG2 cells.[47] […] Cytotoxic effects of compounds were assessed using the cell proliferation reagent WST-1 (Roche; CELLPRO-RO) in a 96-well plate-based screening assay. HepG2 cells were seeded at 10^4 cells/well (100 μL) in 96-well flat-bottom plates (Sarstedt) the night before the experiment to allow attachment of cells. The next day, two-fold serial dilutions of compounds were prepared in fresh medium in an extra plate, and the medium of cells was replaced by the medium containing the compound dilutions. Non-treated cells (max. proliferation), cells treated with the maximal solvent concentration (DMSO; solvent control), and medium with the maximal compound concentration (native absorbance) used as controls. […] Subsequently, 10 μL WST-1 was added to each well and plates were incubated for additional 4 h under standard conditions. WST-1 is a tetrazolium salt and is metabolised by the mitochondrial succinate-tetrazolium-reductase system of living cells and forms formazan, whose absorbance was measured at 450 nm. Absorbance at 630 nm was assessed to check for protein and precipitation background. Both measurements were acquired via the CLARIOstar (V5.20) and MARS software, manually scaled to 0–100%, and plotted with GraphPad Prism (version 9.5.2 for Windows, GraphPad Software, La Jolla California USA).

Namalwa = tested on: Namalwa; set-up: method as in PMID 33668008; conditions: Fig. 1A; cited from earlier work
P. falciparum 3D7 = assay: Antiplasmodial SYBR Green I proliferation assay, P. falciparum 3D7; assay type: cell-based, Plasmodium falciparum; conditions: Plasmodium falciparum, 3D7, 96 h, 96 h; values in brackets 95% confidence intervals; read-out: IC50 Pf3D7
Excerpt: Antiplasmodial activity against P. falciparum 3D7 (A, C and E) and P. falciparum Dd2 (B, D, F). […] Curves were plotted using non-linear regression based on means from three independent experiments measured in triplicate. Error bars indicate standard deviation, whose values are provided in the respective table.
Plasmodium falciparum culture and antiplasmodial activity. […] Development, parasitaemia, and morphology of parasites were monitored by light microscopy of thin blood smears stained according to the Romanowsky method (Panótico Rápido staining kit; Laborclin, Pinhais, Paraná, Brazil). […] Fresh 0^+ blood was generously provided by “Hospital Novo Atibaia” (Atibaia, SP, Brazil), and approved by the ethics committee at ICB-USP. The antiplasmodial effect of all compounds was validated against P. falciparum 3D7 strain conducting SYBR Green I (Invitrogen) drug assays as previously reported[30],[46] as a modification of the original procedure. […] Parasite proliferation was measured by the DNA load via fluorescence, using 100 μL of a lysis buffer with SYBR Green I (0.02% v/v) and incubated for 1 h at room temperature in the dark. […] Focal and gain adjustment was performed using the non-treated controls (highest expected fluorescence signal). Data was acquired via the CLARIOstar (V5.20) and MARS software, manually scaled to 0–100%, and plotted using GraphPad Prism (v9.5.2 for Windows, GraphPad Software, La Jolla California USA, www.graphpad.com). Non-treated parasites, the highest solvent concentration on parasites, CQ on parasites, and the highest drug concentration in the medium were used as controls for maximal growth, solvent control, positive biological control, and native drug fluorescence, respectively.

human HDAC6 = target: T6, human HDAC6 (Homo sapiens, UniProt Q9UBN7); assay: In vitro HDAC enzymatic assay, HDAC6; assay type: biochemical; conditions: for IC50: mean ± SD; for HDAC1/6 SI: ratio HsHDAC1 IC50/HsHDAC6 IC50
T6 construct: purchased ENZO Life Sciences AG (Lausen, CH)
T6 sequence (Q9UBN7 1-1215): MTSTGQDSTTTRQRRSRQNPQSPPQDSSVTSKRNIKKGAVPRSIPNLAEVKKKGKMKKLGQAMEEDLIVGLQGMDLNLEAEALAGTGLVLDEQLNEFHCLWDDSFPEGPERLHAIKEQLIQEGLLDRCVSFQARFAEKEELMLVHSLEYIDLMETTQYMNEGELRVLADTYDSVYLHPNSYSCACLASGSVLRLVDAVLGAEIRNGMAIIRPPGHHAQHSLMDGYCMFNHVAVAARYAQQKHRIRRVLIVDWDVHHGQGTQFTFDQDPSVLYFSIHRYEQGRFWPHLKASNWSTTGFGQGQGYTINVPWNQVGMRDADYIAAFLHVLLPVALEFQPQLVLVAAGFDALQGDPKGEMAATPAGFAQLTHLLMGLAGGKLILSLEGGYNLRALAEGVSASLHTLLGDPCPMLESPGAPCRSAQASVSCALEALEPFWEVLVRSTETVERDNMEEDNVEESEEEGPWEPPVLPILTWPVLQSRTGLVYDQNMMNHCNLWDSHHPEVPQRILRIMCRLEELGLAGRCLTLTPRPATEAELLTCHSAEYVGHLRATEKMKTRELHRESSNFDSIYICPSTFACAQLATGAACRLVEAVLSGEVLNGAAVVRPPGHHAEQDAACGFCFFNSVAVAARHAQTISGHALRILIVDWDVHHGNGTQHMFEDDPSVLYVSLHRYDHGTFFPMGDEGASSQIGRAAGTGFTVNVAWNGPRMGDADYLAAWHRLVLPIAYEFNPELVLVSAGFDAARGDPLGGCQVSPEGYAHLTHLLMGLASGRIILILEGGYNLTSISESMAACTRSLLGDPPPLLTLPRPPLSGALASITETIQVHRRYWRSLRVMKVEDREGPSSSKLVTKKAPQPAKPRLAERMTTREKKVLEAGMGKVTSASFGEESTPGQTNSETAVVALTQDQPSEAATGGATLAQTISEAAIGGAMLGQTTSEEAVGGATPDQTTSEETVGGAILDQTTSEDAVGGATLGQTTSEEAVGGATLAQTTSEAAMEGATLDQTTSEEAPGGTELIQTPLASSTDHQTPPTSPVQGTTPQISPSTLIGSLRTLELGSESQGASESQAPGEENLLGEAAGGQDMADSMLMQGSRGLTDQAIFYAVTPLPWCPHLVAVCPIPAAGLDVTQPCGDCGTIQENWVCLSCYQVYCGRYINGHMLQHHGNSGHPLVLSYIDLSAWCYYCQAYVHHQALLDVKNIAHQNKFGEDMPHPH
Description: as §1

P. falciparum culture = tested on: P. falciparum culture; set-up: method as in PMID 33046062; conditions: cited from earlier work
[1] = set-up: method as in PMID 33046062; conditions: cited from earlier work

Sequence of CYP450 3A4 (P08684 whole entry): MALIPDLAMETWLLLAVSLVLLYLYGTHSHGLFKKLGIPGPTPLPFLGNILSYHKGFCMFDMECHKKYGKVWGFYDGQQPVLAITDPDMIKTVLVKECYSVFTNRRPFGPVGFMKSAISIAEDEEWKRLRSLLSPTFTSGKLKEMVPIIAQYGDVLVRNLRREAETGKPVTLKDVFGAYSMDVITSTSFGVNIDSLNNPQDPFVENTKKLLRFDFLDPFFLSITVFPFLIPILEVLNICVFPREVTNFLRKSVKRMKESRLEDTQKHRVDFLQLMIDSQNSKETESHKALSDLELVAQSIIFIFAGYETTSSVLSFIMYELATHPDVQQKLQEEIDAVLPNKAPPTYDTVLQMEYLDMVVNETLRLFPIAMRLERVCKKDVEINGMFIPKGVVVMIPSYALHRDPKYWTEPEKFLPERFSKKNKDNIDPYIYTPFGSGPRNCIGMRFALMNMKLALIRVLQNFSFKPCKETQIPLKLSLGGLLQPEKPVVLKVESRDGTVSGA

Compound	CYP450% inhibition @ 10 µM 3A4 (CYP450 3A4)	CYP450% inhibition @ 10 µM 1A2 (CYP1A2)	CYP450% inhibition @ 10 µM 2D6 (CYP450 2D6)	CYP450% inhibition @ 10 µM 2C9 (CYP450 2C9) [%]	melting point	IC50 (Jurkat) [nM]	IC50 (HDAC8) [nM]	IC50 (human HDAC1) [nM]	IC50 (HepG2 cells) [nM]	IC50 (Namalwa) [nM]	IC50 (P. falciparum 3D7) [nM]	IC50 (human HDAC6) [nM]	HDAC1/6 SI (human HDAC6)	IC50 against P. falciparum culture (P. falciparum culture)	Half-life t1/2 [1] [h]
Nc1ccc(S(=O)(=O)Nc2ccnn2-c2ccccc2)cc1 [Sulfaphenazole, reference compound]	* (Inhibition < 10%)	* (Inhibition < 10%)	* (Inhibition < 10%)	94	–	–	–	–	–	–	–	–	–	–	–
O=C(CCc1ccc(NC(=O)Nc2ccccc2)cc1)NO [Compound 7a, N-hydroxy-3-(4-(3-phenylureido)phenyl)propanamide]	–	–	–	–	304 °C (dec.)	1590	462 ± 27.6	4890 ± 210	> 50000	780	4570	152 ± 11.6	32	–	–
O=C(/C=C/c1ccc(NC(=O)Nc2ccccc2)cc1)NO [Compound 6a, (E)-N-hydroxy-3-(4-(3-phenylureido)phenyl)acrylamide]	–	–	–	–	202 to 204 °C	160	95.1 ± 4.6	1350 ± 64.2	22900	300	1720	12.4 ± 0.7	109	–	–
Cl.O=C(NO)c1ccc(Cn2cc(-c3ccc(CN4CCCC4)cc3)nn2)cc1 [FNDR-20123]	–	–	–	–	–	–	–	–	–	–	–	–	–	low nanomolar range	2 to 9.21
